Data: patent US20190367516A1 (Bayer Pharma Aktiengesellschaft, priority 2015, published 2019)
pEC50: −log10 of the molar value. Read-outs that look alike come from different tables or passages of the source.

Target: T1, human M2 receptor (Homo sapiens, UniProt P08172)
T1 sequence (P08172 1-466): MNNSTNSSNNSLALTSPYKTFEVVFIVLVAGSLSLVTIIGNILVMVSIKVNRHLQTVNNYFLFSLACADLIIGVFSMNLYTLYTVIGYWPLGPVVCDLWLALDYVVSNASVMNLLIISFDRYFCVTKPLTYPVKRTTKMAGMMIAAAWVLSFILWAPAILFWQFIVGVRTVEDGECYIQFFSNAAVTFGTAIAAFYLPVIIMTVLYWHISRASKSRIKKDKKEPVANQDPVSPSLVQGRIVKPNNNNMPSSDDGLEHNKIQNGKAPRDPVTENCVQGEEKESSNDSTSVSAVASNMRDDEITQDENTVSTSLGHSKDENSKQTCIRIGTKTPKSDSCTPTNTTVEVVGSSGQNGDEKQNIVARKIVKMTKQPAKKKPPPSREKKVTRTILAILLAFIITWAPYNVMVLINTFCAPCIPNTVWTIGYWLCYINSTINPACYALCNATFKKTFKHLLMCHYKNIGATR
Details: for pEC50: Receptor activity EC50, allosteric potency at EC20 acetylcholine, in some cases mean of two or more determinations

[1] = read-out: Efficiency, boosting of the acetylcholine effect at EC20 acetylcholine concentration, M2-GIRK1/4 reporter cells

pEC50 (M2-GIRK1/4 reporter cells) | Emax [1] | SMILES | Emax (read-out: Efficiency)
7.60 | 98% | COC1(C)CN(c2ccc3c(=O)c(C(=O)N[C@H](C4CC4)C(F)(F)F)cn(-c4c(F)cc(F)cc4F)c3n2)C1 [Example 605, N-[(1R)-1-Cyclopropyl-2,2,2-trifluoroethyl]-7-(3-methoxy-3-methylazetidin-1-yl)-4-oxo-1-(2,4,6-trifluorophenyl)-1,4-dihydro-1,8-naphthyridine-3-carboxamide] | 
7.28 | 93.8% | COC(=O)N1CCN(c2ccc3c(=O)c(C(=O)NC45CC(C4)C5)cn(-c4c(F)cc(F)cc4F)c3n2)CC1 [Example 633, Methyl 4-[6-(bicyclo[1.1.1]pent-1-ylcarbamoyl)-5-oxo-8-(2,4,6-trifluorophenyl)-5,8-dihydro-1,8-naphthyridin-2-yl]piperazine-1-carboxylate] | 
7.23 | 100% | O=C(NC1(CC(F)(F)F)CC1)c1cn(-c2c(F)cc(F)cc2F)c2nc(N3C[C@@H](O)[C@H](O)C3)ccc2c1=O [Example 635, 7-[(3R,4R)-3,4-Dihydroxypyrrolidin-1-yl]-4-oxo-N-[1-(2,2,2-trifluoroethyl)cyclopropyl]-1-(2,4,6-trifluorophenyl)-1,4-dihydro-1,8-naphthyridine-3-carboxamide] | 
7.22 | 93% | CC[C@H](NC(=O)c1cn(-c2c(F)cccc2F)c2nc(N3CCNC3=O)ccc2c1=O)C(F)(F)F [Example 637, 1-(2,6-Difluorophenyl)-4-oxo-7-(2-oxoimidazolidin-1-yl)-N-[(2)-1,1,1-trifluorobutan-2-yl]-1,4-dihydro-1,8-naphthyridine-3-carboxamide] | 
7.16 | 91.3% | CC[C@@H](NC(=O)c1cn(-c2ccc(F)cc2F)c2nc(N3C(=O)CC(O)C3C)ccc2c1=O)C(F)(F)F (stereo partly drawn) [Example 640, 1-(2,4-Difluorophenyl)-7-[3-hydroxy-2-methyl-5-oxopyrrolidin-1-yl]-4-oxo-N-[(2R)-1,1,1-trifluorobutan-2-yl]-1,4-dihydro-1,8-naphthyridine-3-carboxamide] | 
7.14 | 92% | CC[C@@H](NC(=O)c1cn(-c2c(Cl)cc(F)cc2Cl)c2nc(N3C[C@@H](O)[C@H](O)C3)ccc2c1=O)C(F)(F)F [Example 643, 1-(2,6-Dichloro-4-fluorophenyl)-7-[(3R,4R)-3,4-dihydroxypyrrolidin-1-yl]-4-oxo-N-[(2R)-1,1,1-trifluorobutan-2-yl]-1,4-dihydro-1,8-naphthyridine-3-carboxamide] | 
7.13 | 85% | O=C(N[C@@H](C1CC1)C(F)(F)F)c1cn(-c2c(F)cccc2F)c2nc(N3CCNC3=O)ccc2c1=O [Example 644, N-[(1 S)-1-Cyclopropyl-2,2,2-trifluoroethyl]-1-(2,6-difluorophenyl)-4-oxo-7-(2-oxoimidazolidin-1-yl)-1,4-dihydro-1,8-naphthyridine-3-carboxamide] | 
 | 92% | O=C(N[C@H](C1CC1)C(F)(F)F)c1cn(-c2c(Cl)cc(F)cc2Cl)c2nc(N3CCNC3=O)ccc2c1=O [Example 647, N-[(1R)-1-Cyclopropyl-2,2,2-trifluoroethyl]-1-(2,6-dichloro-4-fluorophenyl)-4-oxo-7-(2-oxoimidazolidin-1-yl)-1,4-dihydro-1,8-naphthyridine-3-carboxamide] | 
7.08 | 94% | CC[C@@H](NC(=O)c1cn(-c2c(Cl)cc(F)cc2Cl)c2nc(N3CCNC3=O)ccc2c1=O)C(F)(F)F [Example 649, 1-(2,6-Dichloro-4-fluorophenyl)-4-oxo-7-(2-oxoimidazolidin-1-yl)-N-[(2R)-1,1,1-trifluorobutan-2-yl]-1,4-dihydro-1,8-naphthyridine-3-carboxamide] | 
7.08 | 100% | NC(=O)N1CCN(c2ccc3c(=O)c(C(=O)N[C@H](C4CC4)C(F)(F)F)cn(-c4c(F)cc(F)cc4F)c3n2)CC1 [Example 650, 7-(4-Carbamoylpiperazin-1-yl)-N-[(1R)-1-cyclopropyl-2,2,2-trifluoroethyl]-4-oxo-1-(2,4,6-trifluorophenyl)-1,4-dihydro-1,8-naphthyridine-3-carboxamide] | 

The next lines start with the compound.

SMILES | pEC50 (M2-GIRK1/4 reporter cells) | Emax [1] | Emax (read-out: Efficiency)
CC(C)(CC(F)(F)F)NC(=O)c1cn(-c2c(F)cc(F)cc2F)c2nc(N3C[C@@H](O)[C@@H](O)C3)ccc2c1=O [Example 612, 7-[(3R,4S)-3,4-Dihydroxypyrrolidin-1-yl]-4-oxo-N-(4,4,4-trifluoro-2-methylbutan-2-yl)-1-(2,4,6-trifluorophenyl)-1,4-dihydro-1,8-naphthyridine-3-carboxamide] | 7.54 | 100% | 
O=C(Nc1c(Cl)cccc1Cl)c1cn(-c2c(F)cc(F)cc2F)c2nc(N3CCNC3=O)ccc2c1=O [Example 613, N-(2,6-Dichlorophenyl)-4-oxo-7-(2-oxoimidazolidin-1-yl)-1-(2,4,6-trifluorophenyl)-1,4-dihydro-1,8-naphthyridine-3-carboxamide] | 7.48 | 95.5% | 
CC(C)(NC(=O)c1cn(-c2c(F)cc(F)cc2F)c2nc(N3CCNC3=O)ccc2c1=O)C(F)F [Example 614, N-(1,1-Difluoro-2-methylpropan-2-yl)-4-oxo-7-(2-oxoimidazolidin-1-yl)-1-(2,4,6-trifluorophenyl)-1,4-dihydro-1,8-naphthyridine-3-carboxamide] | 7.44 | 94.5% | 
O=C(NC1(C(F)(F)F)CCC1)c1cn(-c2c(F)cc(F)cc2F)c2nc(N3C[C@@H](O)[C@H](O)C3)ccc2c1=O [Example 625, 7-[(3R,4R)-3,4-Dihydroxypyrrolidin-1-yl]-4-oxo-N-[1-(trifluoromethyl)cyclobutyl]-1-(2,4,6-trifluorophenyl)-1,4-dihydro-1,8-naphthyridine-3-carboxamide] | 7.37 | 100% | 
O=C(N[C@H](C1CC1)C(F)(F)F)c1cn(-c2c(F)cccc2F)c2nc(N3CCNC3=O)ccc2c1=O [Example 629, N-[(1R)-1-Cyclopropyl-2,2,2-trifluoroethyl]-1-(2,6-difluorophenyl)-4-oxo-7-(2-oxoimidazolidin-1-yl)-1,4-dihydro-1,8-naphthyridine-3-carboxamide] | 7.36 | 100% | 
O=C(N[C@@H](C1CC1)C(F)(F)F)c1cn(-c2c(F)cc(F)cc2F)c2nc(N3C[C@@H](O)[C@@H](O)C3)ccc2c1=O [Example 630, N-[(1S)-1-Cyclopropyl-2,2,2-trifluoroethyl]-7-[(3R,4S)-3,4-dihydroxypyrrolidin-1-yl]-4-oxo-1-(2,4,6-trifluorophenyl)-1,4-dihydro-1,8-naphthyridine-3-carboxamide] | 7.32 |  | 100%
O=C(NC1(CC(F)(F)F)CC1)c1cn(-c2c(F)cc(F)cc2F)c2nc(N3C[C@@H](O)CC3=O)ccc2c1=O [Example 632, 7-[(4S)-4-Hydroxy-2-oxopyrrolidin-1-yl]-4-oxo-N-[1-(2,2,2-trifluoroethyl)cyclopropyl]-1-(2,4,6-trifluorophenyl)-1,4-dihydro-1,8-naphthyridine-3-carboxamide] | 7.31 | 100% | 
NC(=O)N1CCN(c2ccc3c(=O)c(C(=O)Nc4c(Cl)cccc4Cl)cn(-c4c(F)cc(F)cc4F)c3n2)CC1 [Example 636] | 7.22 | 98.1% | 
CC[C@@H](NC(=O)c1cn(-c2c(F)cccc2F)c2nc(N3CCNC3=O)ccc2c1=O)C(F)(F)F [Example 638, 1-(2,6-Difluorophenyl)-4-oxo-7-(2-oxoimidazolidin-1-yl)-N-[(2R)-1,1,1-trifluorobutan-2-yl]-1,4-dihydro-1,8-naphthyridine-3-carboxamide] | 7.20 | 100% | 
COC1(C)CN(c2ccc3c(=O)c(C(=O)NC45CC(C4)C5)cn(-c4c(F)cc(F)cc4F)c3n2)C1 [Example 641, N-(Bicyclo[1.1.1]pent-1-yl)-7-(3-methoxy-3-methylazetidin-1-yl)-4-oxo-1-(2,4,6-trifluorophenyl)-1,4-dihydro-1,8-naphthyridine-3-carboxamide] | 7.15 | 100% | 
O=C(N[C@@H](C1CC1)C(F)(F)F)c1cn(-c2c(F)cc(F)cc2F)c2nc(N3C[C@H](O)[C@@H](O)C3)ccc2c1=O [Example 642, N-[(1 S)-1-Cyclopropyl-2,2,2-trifluoroethyl]-7-[(3S,4S)-3,4-dihydroxypyrrolidin-1-yl]-4-oxo-1-(2,4,6-trifluorophenyl)-1,4-dihydro-1,8-naphthyridine-3-carboxamide] | 7.14 |  | 100%
CC[C@@H](NC(=O)c1cn(-c2c(Cl)cccc2Cl)c2nc(N3C[C@@H](O)CC3=O)ccc2c1=O)C(F)(F)F [Example 645, 1-(2,6-Dichlorophenyl)-7-[(4S)-4-hydroxy-2-oxopyrrolidin-1-yl]-4-oxo-N-[(2R)-1,1,1-trifluorobutan-2-yl]-1,4-dihydro-1,8-naphthyridine-3-carboxamide] | 7.13 |  | 83%
O=C(Nc1c(Cl)cccc1Cl)c1cn(-c2ccc(F)cc2F)c2nc(N3C[C@@H](O)[C@@H](O)C3)ccc2c1=O [Example 651, N-(2,6-Dichlorophenyl)-1-(2,4-difluorophenyl)-7-[(3R,4S)-3,4-dihydroxypyrrolidin-1-yl]-4-oxo-1,4-dihydro-1,8-naphthyridine-3-carboxamide] | 7.07 | 95% | 
